# Assay results from US20050038113A1, “Valproic acid and derivatives for the combinatorial therapeutic treatment of human cancers and for the treatment of tumor metastasis and minimal residual disease” (G2M Cancer Drugs AG, priority 2001, published 2005).
# What was measured:
# [1] = tested on: control cells (lin-, PINCO empty vector or uninfected); experiment: myeloid differentiation (Mac-1, FACS) of transduced hematopoietic progenitors; type: cell-based, Murine
# Method: Murine hematopoietic progenitors (lin-) were transduced with a retroviral vector encoding PML-RAR, and GFP as a marker. […] Myeloid differentiation was scored by analyzing the presence of the differentiation marker Mac-1.
# Murine hematopoietic progenitors were purified from the bone marrow of 129 mice on the basis of the absence of lineage differentiation markers (lin-). Lin- cells were grown for 48 hours in the presence of IL-3 (20 ng/ml), IL-6 (20 ng/ml), SCF (100 ng/ml), and then attached to non-tissue culture treated plates coated with Retronectin (Takara-Shuzo). Cells were then transduced by incubation with the supernatant from Phoenix ecotropic packaging cells (supplemented with fresh serum, and IL-3, IL-6, and SCF as above), transiently transfected with the control retroviral vector PINCO, or PINCO-PML-RAR. After 60 hours, GFP+cells were sorted by FACS, and seeded in methylcellulose plates supplemented as above, plus G-CSF (60 ng/ml) and GM-CSF (20 ng/ml). […] After 8-10 days, cells were analyzed for the presence of the myeloid differentiation marker Mac-1 by FACS. […] Uninfected cells, and cells infected with the control PINCO vector behaved identically (data not shown).
# For FIG. 11 Lin- cells were transduced with the indicated vectors (control: PINCO, empty vector encoding GFP alone), and GFP+cells were sorted by FACS. […] Differentiation was assessed after 8-10 days by analysis of the myeloid differentiation marker Mac-1.
# [2] = tested on: PML-RAR expressing leukemic cells; experiment: survival of mice suffering from acute promyelocytic leukemia; type: in vivo
# Method: Mice that developed leukemia after inoculation with PML-RAR expressing cells were sacrificed. Single-cell suspensions of spleenocytes were prepared, and secondary recipient mice were reinoculated with 10^7 cells.
# The numbers in parentheses indicate the number of mice in the representative experiment shown.
# [3] = dose finding experiment, VPA serum levels; type: in vivo, rat; details: chosen dosage protocol
# Method: MT450 cells were grown in DMEM/W10% FCS medium and tested for absence of mycoplasms just prior to injection. Cells were washed twice in PBS and suspended to a density of 5×10^6 cells per ml of PBS. 5×10^5 cells in 0.1 ml of PBS were injected into each rat. […] Rats were left to grow primary tumors for 21 days. […] The solution was sterile filtered. The compound was applied by i.p. injection. […] Two doses per day were applied. Control animals received equal amounts of a sterile isotonic sodium chloride solution.
# The experiment was terminated when tumor size in one of the rats of the control group had reached the legal limit of 50 mm. Necropsy at that time was performed on all rats of the experiment to assess lung metastasis. […] Metastasis was also found in 7 out of 8 VPA-treated rats. However, size and number of metastases were much smaller compared to NaCl-treated rats. A dose finding experiment had shown that the chosen dosage protocol lead to high initial serum levels (e.g. 3.6 mM at 1 hour after i.p. injection) which rapidly dropped (e.g. 0.25 mM at 4 hours after i.p. injection) below those levels which are maintained during therapy of epilepsy in human.
# [4] = tested on: SKBR3 breast carcinoma cells; experiment: MTT cell viability assay; type: cell-based, Human; details: for cell viability: single reagent, valproic acid 3 mM
# Method: (§1) Human MDA-MB468, MDA-MB453 and SKBR3 breast carcinoma cells and A431 squamous cell carcinoma cells were maintained in Dulbecco's modified Eagle's medium (DMEM, BioWhittaker, Verviers, Belgium) supplemented with 10% heat inactivated fetal bovine serum (FBS), 2 mM L-glutamine, 100 units/ml penicillin, and 100 μg/ml streptomycin.
# (§2) Tumor cells were seeded in 96 well plates at a density of 1×10^4 cells/well in normal growth medium. […] Control cells were grown in the absence of valproic acid or antibodies. 10 μl of 10 mg/ml 3-(4,5-dimethylthiazole-2-yl)-2,5 diphenyltetrazolium bromide (MTT) (Sigma, Deisenhofen, Germany) in PBS were added to each well and the cells were incubated for another 3 h. Cells were lysed by the addition of 90 μl of lysis buffer (20% SDS in 50% dimethyl formamide, pH 4.7). After solubilization of the formazan product, the absorption at 590 nm was determined in a microplate reader (Dynatech, Denkendorf, Germany) and the relative amount of viable cells in comparison to cells cultured without the addition of valproic acid or antibodies was calculated.
# (§3) Human SKBR3 breast carcinoma cells, A431 squamous cell carcinoma cells and SKOV3 ovarian carcinoma cells were maintained in Dulbecco's modified Eagle's medium (DMEM, BioWhittaker, Verviers, Belgium) supplemented with 10% heat-inactivated fetal bovine serum (FBS), 2 mM L-glutamine, 100 units/ml penicillin, and 100 μg/ml streptomycin.
# (§4) Tumor cells were seeded in 96 well plates at a density of 1×10^4 cells/well in normal growth medium. […] Renca-lacZ/ErbB2, Renca-lacZ/EGFR and Renca-lacZ/EGFRvIII cells were treated for 40 h with valproic acid at a final concentration of 1 mM, or 10 ng/ml of the recombinant anti-ErbB2 single chain antibody-toxin scFv(FRP5)-ETA, or 1 ng/ml of the recombinant anti-EGF receptor single chain antibody-toxin scFv(14E1)-ETA, or a combination of valproic acid with either scFv(FRP5)-ETA or scFv(14E1)-ETA at the same concentrations. Control cells were grown in the absence of valproic acid or antibody-toxins. Ten μl of 10 mg/ml 3-(4,5-dimethylthiazole-2-yl)-2,5 diphenyltetrazolium bromide (MTT) (Sigma, Deisenhofen, Germany) in PBS were added to each well and the cells were incubated for another 3 h. Cells were lysed by the addition of 90 μl of lysis buffer (20% SDS in 50% dimethyl formamide, pH 4.7). After solubilization of the formazan product, the absorption at 590 nm was determined in a microplate reader (Dynatech, Denkendorf, Germany) and the relative amount of viable cells in comparison to cells cultured without the addition of valproic acid or antibody-toxins was calculated.
# [5] = tested on: A431 squamous cell carcinoma cells; experiment: MTT cell viability assay; type: cell-based, Human; details: for cell viability: single reagent, valproic acid 3 mM
# Method: as §1, §2, §3, §4
# [6] = 3 mM valproic acid + 10 ng/ml scFv(14E1)-ETA, 40 h
# [7] = 3 mM valproic acid + 10 ng/ml scFv(FRP5)-ETA, 40 h
# [8] = 40 h, scFv(FRP5)-ETA 10 ng/ml, scFv(14E1)-ETA 10 ng/ml
structure (smiles),measurement,setting,value
"CCCC(CCC)C(=O)O [VPA, 2-propylpentanoic acid]",number of colonies,"[1]; VPA at higher concentrations (>3 mM), most likely induction of cell death, data not shown",reduction in the number of colonies
same,number of Mac-1+ cells and number of colonies,[1]; VPA up to concentrations of 1 mM,did not cause significant changes
same,differentiation of control cells,[1]; VPA with cytokines,did not affect differentiation
same,"leukemic blasts in peripheral blood, bone marrow, spleen","[2]; combination of retinoic acid and VPA, entire duration of the treatment",no leukemic blasts were observed
same,survival of leukemic mice,[2]; combination of retinoic acid pellet and VPA 400 mg/kg I.P. every 12 hours,greatest extension of survival
same,survival of leukemic mice,"[2]; single agent: retinoic acid pellets subcutaneously, VPA 400 mg/kg I.P. every 12 hours",significantly extended survival
same,serum level,[3]; 1 hour after i.p. injection,3600 µM
same,serum level,[3]; 4 hours after i.p. injection,250 µM
same,"cell viability, combination treatment",[4]; [6],pronounced additive therapeutic effect
same,"cell viability, combination treatment",[4]; [7],pronounced additive therapeutic effect
same,"cell viability, combination treatment","[4]; 3 mM valproic acid + 2 μg/ml Herceptin, 70 h",pronounced additive therapeutic effect
same,cell viability,[4]; [8],inhibit the viability
same,cell viability,"[4]; 70 h, Herceptin 2 μg/ml",inhibit the viability
same,"cell viability, combination treatment","[5]; 3 mM VPA + 2 μg/ml c225, 70 h",synergistic reduction of cell viability
same,"cell viability, combination treatment",[5]; [6],pronounced additive therapeutic effect
same,"cell viability, combination treatment",[5]; [7],pronounced additive therapeutic effect
same,cell viability,[5]; [8],inhibit the viability
same,cell viability,"[5]; 70 h, c225 2 μg/ml",inhibit the viability
